Test results as given in patent publication US10513529B2, “1,2,4-triazolo-[3,4-b]-1,3,4-thiadiazole derivatives” (GALENICA S.A., priority 2016, dated 2019).
Where “and” joins values, the source holds several entries; their conditions need not be identical. Equal entries are not always repeated.

Key:
[1] = system: T-47D human breast cancer cell line; assay: MTT cytostatic-cytotoxic activity, T-47D; type: cell-based; settings: 48 h treatment; for IC50: kills 50% of the cells
[2] = system: UWB1.289 human ovarian cancer cell line (mutant BRCA1); assay: MTT cytostatic-cytotoxic activity, UWB1.289; type: cell-based; settings: for IC50: kills 50% of the cells
Experimental: Also, UWB1.289 cells have mutated the p53 tumor suppressor gene and positive Wilms' tumor protein (WT) expression, have no functional BRCA1 gene and are positive for the expression of cytokeratin 7 (CK-7), calretinin and Wilms' tumor protein (WT). Finally they are sensitive to ionizing radiation.
(§1) All cancer cell lines are stored in a liquid nitrogen tank in 2.5 ml cryovials (Corning-Costar, Cambridge, Mass.). DMSO (dimethylsulfoxide) act as a cryoprotectant and is added to prevent the formation of ice crystals which may lyse the cells. The Cells were grown as monolayer cultures in T-75 flasks (Corning-Costar, Cambridge, Mass.) and maintained at 37° C. in 5% CO2 incubator & 100% relative humidity. The cultures medium used are McCoy's 5a Medium, supplemented with 10% fetal bovine serum (FBS, Gibco) and 1% antibiotics (100 IU/ml penicillin/100 µg/ml streptomycin), sterilized by filtration (Corning-Costar filter, diameter 0.2 μm, RPMI-1640 and 50% RPMI-1640 (Catalog No 30-2001) plus 50% Mammary Epithelial Growth Medium (MEGM), supplemented with 10% fetal bovine serum (FBS, Gibco) and 1% antibiotics (100 IU/ml penicillin/100 μg/ml streptomycin). The passage is performed every 3-4 to days as follows: Cells are washed with sterile PBS (Phosphate buffered saline): 8 g/l NaCl, 0,2 g/l KCl, 1,15 g/l Na2HPO4καl 0,2 g/l KH2PO4. pH:7,4), add 2-3 ml 0.05% trypsin (Gibco 1:250) and 0.02% EDTA to cover the monolayer and incubate the flask at 3TC for 5-10 minutes. Trypsin-EDTA, is used mainly to detach the cells from the flask and prepare a single cell suspension. Finally, the number of cells can be determined by direct counting using a Neubauer chamber and cell viability is determined by staining the cells with trypan blue.
(§2) In the experimental study the in vitro effect of the compound type (I) was evaluated against ovarian cancer cell lines UWB1.289, UWB1.289+BRCA1 Kai SKOV-3.The cells were plated in 96-well plate (MTP) at a density of 1×10^4cells/m1 per well and maintained for 72 h at 3TC in a 5% CO2 incubator and grown as monolayers. The selection of the initial number of cells was made according to the rate of proliferation of the cell line, in order the cells throughout the experiment are in an exponential (log) growth phase. After 24 hours, cells were treated with 1-100 μmol/l of the tested compounds for 48 h. Experiments were carried out using triplicate wells. The viability of cultured cells was estimated by an (3-(4,5-imethylthiazol-2-yl)-2,5-diphenyltetrazolium bromide (MTT) metabolic assay as described previously (Finlay G J, Wilson W R and Baguley B C: Comparison of in vitro activity of cytotoxic drugs towards human carcinoma and leukaemia cell lines. Eur J Cancer Clin Oncol 22: 655-662, 1986; Alley M C, Scudiero D A, Monks A, Hursey M L, Czerwinski M J, Fine D L, et al. Feasibility of drug screening with panels of human tumor cell lines using a microculture tetrazolium assay. Cancer Res 1988; 48:589-601). MTT (Sigma, St Louis, Mo., USA) was dissolved in PBS in a concentration of 5 mg/ml, filter sterilized, and stored at 4° C. MTT (50 μl of stock solution) was added to each culture and incubated for 3 h at 3TC to allow metabolization. Formazan crystals were solubilized by DMSO (100 μl). Absorbance of the converted dye was measured at a wavelength of 540nm on ELISA reader (BioTek, Winooski, Vt., USA).
(§3) GI50: The mean concentration that causes 50% inhibition of cell growth (Growth Inhibition 50%). The calculation of the value is based on the formula: (Tt72x)−(Ct24)/(Ct72)-(Ct24)×100=50
(§4) TGI: The mean concentration that causes 100% inhibition of cell growth (Total Growth Inhibition). The value is calculated according to the formula: (Tt72x)−(Ct24)/(Ct72)−(Ct24)×100=0
(§5) IC50: The mean concentration that kills 50% of the cells (Inhibition Concentration 50%). The value is calculated according to the formula: (Tt72x)−(Ct24)/(Ct24)×100=[…]

[3] = system: UWB1.289 + BRCA1 human ovarian cancer cell line; assay: MTT cytostatic-cytotoxic activity, UWB1.289+BRCA1; type: cell-based; settings: for IC50: kills 50% of the cells
Experimental: Human ovarian adenocarcinoma cells, derived from UBWB1,289, in which the presence of the BRCA1 gene has been restored. […] They are not susceptible to ionizing radiation and radioimmune chemical agents (e.g., alkylating agents). Also, UWB1.289 cells have mutated the p53 tumor suppressor gene, and are positive for the expression of cytokeratin 7 (CK-7), calretinin and Wilms' tumor protein (WT).
as §1, §2, §3, §4, §5

[4] = system: MCF-7 human breast cancer cell line; assay: MTT cytostatic-cytotoxic activity, MCF-7; type: cell-based; settings: for IC50: kills 50% of the cells
[5] = system: MOLT-4 human acute T-leukemia cell line; assay: MTT cytostatic-cytotoxic activity, MOLT-4; type: cell-based; settings: MOLT-4, 48 h treatment; for IC50: kills 50% of the cells
[6] = system: A-549 human lung carcinoma cell line; assay: MTT cytostatic-cytotoxic activity, A-549; type: cell-based; settings: for IC50: kills 50% of the cells
[7] = system: OVCAR-3 human ovarian cancer cell line; assay: MTT cytostatic-cytotoxic activity, OVCAR-3; type: cell-based; settings: OVCAR-3, 48 h treatment; for IC50: kills 50% of the cells
Experimental: (§6) SKOV-3 (SKOV-3) (ATCC HTB 77) and OVCAR-3 (ATCC® HTB-161™)
(§7) Human ovarian adenocarcinoma cells, which are grown easily in monolayer culture with epithelial-like morphology. SKOV-3 are resistant to tumor necrosis factor (TNF) and to other cytotoxic drugs such as cisplatin, and adriamycin, while OVCAR-3 are resistant to adriamycin, cisplatin and melphalan. These cell lines express androgens, estrogens and progesterone receptors. When SKOV-3 or OVCAR-3 cells are subcutaneously implanted in nude mice, SCID mice, a moderately differentiated tumor develops, and the resulting model resembles primary ovarian adenocarcinoma in humans.
as §1, §2, §3
(§8) TGI: The mean concentration that causes 100% inhibition of cell growth (Total Growth Inhibition). […]

[8] = system: PC-3 human hormone-resistant prostate cancer cell line; assay: MTT cytostatic-cytotoxic activity, PC-3; type: cell-based; settings: PC-3, 48 h treatment; for IC50: kills 50% of the cells
[9] = system: SKOV-3 human ovarian cancer cell line; assay: MTT cytostatic-cytotoxic activity, SKOV-3; type: cell-based; settings: for IC50: kills 50% of the cells
Experimental: as §6, §7, §1, §2, §3, §8

C57BI/6 mice = assay: in vivo; settings: i.p., acute toxicity
Experimental: The acute toxicity of the compounds was assessed from lethality by testing different concentrations, starting at 100mg/kg. […] For intraperitoneal (i.p.) treatment, stock solutions of the tested compounds were prepared immediately before use. They were suspended in corn oil in the desired concentration following initial dissolution in 10% dimethylsulfoxide (DMSO). C57BI/6 male and female were used for toxicity studies. Mice were kept under conditions of constant temperature and humidity in sterile cages with water and food.

[10] = Homo sapiens, UWB1289, UWB1.289+BRCA1, 48 h treatment
[11] = Homo sapiens, A549, A-549, 48 h treatment
[12] = Homo sapiens, SK-OV-3, SKOV-3, 48 h treatment

Structure (SMILES)	GI50 [1]	TGI [1]	TGI ([2]; UWB1.289, 48 h treatment)	TGI ([3]; UWB1.289+BRCA1, 48 h treatment)	TGI ([4]; MCF-7, 48 h treatment)	TGI [5]	TGI ([6]; A-549, 48 h treatment)	TGI [7]	TGI [8]	TGI ([9]; SKOV-3, 48 h treatment)	IC50 [1]	GI50 ([2]; UWB1.289, 48 h treatment)	IC50 ([2]; UWB1.289, 48 h treatment)	GI50 ([3]; UWB1.289+BRCA1, 48 h treatment)	IC50 ([3]; UWB1.289+BRCA1, 48 h treatment)	GI50 ([4]; MCF-7, 48 h treatment)	IC50 ([4]; MCF-7, 48 h treatment)	GI50 [5]	IC50 [5]	LD10 (C57BI/6 mice)	further results
COc1cc(Cc2nnc3sc(-c4cccc(Cl)c4)nn23)c(S(=O)(=O)N(C)C)cc1OC [TS22, 3-[2-(N,N-dimethylsulfamoyl)-4,5-dimethoxybenzyl]-6-(3-chlorophenyl)-1,2,4-triazolo[3,4-b]-1,3,4-thiazole]	60 µM	97 µM and 100 µM	>100 µM	>100 µM	90 µM and >100 µM	>100 µM	95 µM	>100 µM	>100 µM	100 µM											GI50 ([1]; Homo sapiens, T47D, 48 h): 48 µM; IC50 ([1]; Homo sapiens, T47D): > 100 µM; melting point: 237 to 239 °C; IC50 ([2]; Homo sapiens, UWB1289, UWB1.289, 48 h treatment): > 100 µM; GI50 [3, 10]: 16 µM; IC50 [3, 10]: > 100 µM; IC50 ([4]; Homo sapiens, MCF7, MCF-7, 48 h treatment): > 100 µM; GI50 ([5]; Homo sapiens): 72 µM; IC50 ([5]; Homo sapiens): > 100 µM; GI50 [6, 11]: 45 µM; IC50 [6, 11]: > 100 µM; GI50 ([7]; Homo sapiens): 90 µM; IC50 ([7]; Homo sapiens): > 100 µM; GI50 ([8]; Homo sapiens): > 100 µM; IC50 ([8]; Homo sapiens): > 100 µM; GI50 [9, 12]: 60 µM; IC50 [9, 12]: > 100 µM
COc1cc(Cc2nnc3sc(CC=Cc4ccccc4)nn23)c(S(=O)(=O)N(C)C)cc1OC [TS53, 3-[2-(N,N-dimethylsulfamoyl)-4,5-dimethoxybenzyl]-6-cinnamyl-1,2,4-triazolo[3,4-b]-1,3,4-thiazole]	8 µM	37 µM	56 µM	28 µM	45 µM	21 µM	24 µM	12 µM	31 µM	16 µM	> 100 µM	12 µM	> 100 µM	12 µM	42 µM	15 µM	> 100 µM	4 µM	36 µM	>500 mg/kg	LD50 (C57BI/6 mice): 375 mg/kg; GI50 ([6]; A-549, 48 h treatment): 9 µM; IC50 ([6]; A-549, 48 h treatment): 58 µM; GI50 [7]: 5 µM; IC50 [7]: 25 µM; GI50 [8]: 12 µM; IC50 [8]: 85 µM; GI50 ([9]; SKOV-3, 48 h treatment): 8 µM; IC50 ([9]; SKOV-3, 48 h treatment): 32 µM
COc1cc(Cc2nnc3sc(-c4ccccn4)nn23)c(S(=O)(=O)N(C)C)cc1OC [TS66]	> 100 µM	>100 µM	>100 µM	>100 µM	>100 µM	>100 µM	>100 µM	>100 µM	>100 µM	>100 µM	> 100 µM	> 100 µM	> 100 µM	> 100 µM	> 100 µM	> 100 µM	> 100 µM	85 µM	> 100 µM	>500 mg/kg	LD50 (C57BI/6 mice): >500 mg/kg; GI50 ([6]; A-549, 48 h treatment): > 100 µM; IC50 ([6]; A-549, 48 h treatment): > 100 µM; GI50 [7]: 24 µM; IC50 [7]: > 100 µM; GI50 [8]: > 100 µM; IC50 [8]: > 100 µM; GI50 ([9]; SKOV-3, 48 h treatment): 20 µM; IC50 ([9]; SKOV-3, 48 h treatment): > 100 µM
